In patent US11166980B2, “Compositions, systems, kits, and methods for treating an infection” (Novan, Inc., priority 2016, dated 2021):
≈ marks a conversion by molar mass, not a printed value. Like-named read-outs stand apart in the source and are kept apart here.

Tests used:
Format in all cases: cell-based
[1] = system: Malassezia furfur; test: Minimum inhibitory concentration (supplemented RPMI-1640)
Description: (§1) The minimum inhibitory concentration (MIC) of Nitricil™ NVN1 was determined in vitro for 40 strains of fungi to determine the spectrum of antifungal activity. All MIC testing was conducted in accordance with the Clinical and Laboratory Standards Institute (CLSI) guidelines for antimicrobial testing of yeasts (M27-A2) and filamentous fungi (M38-A2), apart from the lipophilic Malassezia species, which were incubated in supplemented buffered RPMI-1640 medium. The challenge strains were exposed to a series of doubling dilutions of Nitricil™ NVN1 prepared in RPMI-1640 medium in triplicate. Fungal species were also challenged with ketoconazole, prepared in DMSO, as a comparator. Tubes were inoculated with fungal suspensions to a final concentration of 0.5-2.5×10^3 cells/mL for yeasts and 0.4-5.0×10^4 colony-forming units (CFU)/mL, for filamentous fungi. The MIC was determined following a 1- to 4-day incubation period.

[2] = system: 40 strains of fungi; test: Minimum inhibitory concentration, whole panel
Description: as §1
The broad-spectrum antifungal activity of Nitricil™ NVN1 was assessed via growth inhibition experiments against 40 different fungal strains per CLSI M27-A2 and M38-A2 methodology (CLSI, 2008) for assessment of yeasts and filamentous fungi respectively utilizing ketoconazole as the antifungal comparator. […]

[3] = system: Fusarium solani; test: Minimum inhibitory concentration (CLSI); settings: ATCC56480
Description: as §1

[4] = system: Trichophyton rubrum; test: Minimum inhibitory concentration (CLSI)
Description: as §1

[5] = system: Candida lusitaniae; test: Minimum inhibitory concentration (CLSI); settings: Clavispora lusitaniae, ATCC200950
Description: as §1

[6] = system: Fusarium oxysporum; test: Minimum inhibitory concentration (CLSI); settings: ATCC62705
Description: as §1

[7] = system: Trichophyton mentagrophytes; test: Minimum inhibitory concentration (CLSI)
Description: as §1

[8] = system: Epidermophyton floccosum; test: Minimum inhibitory concentration (CLSI)
Description: as §1

[9] = system: Fusarium keratoplasticum; test: Minimum inhibitory concentration (CLSI); settings: ATCC36031
Description: as §1

[10] = system: Candida tropicalis; test: Minimum inhibitory concentration (CLSI); settings: NCPF8760
Description: as §1

[11] = system: Candida albicans; test: Minimum inhibitory concentration (CLSI)
Description: as §1

CC(=O)N1CCN(c2ccc(OCC3COC(Cn4ccnc4)(c4ccc(Cl)cc4Cl)O3)cc2)CC1 (centres unmarked) [Ketoconazole, ketoconazole]
MIC ([1]; ATCC14521, strain ATCC #14521): > 32 µg/mL | MIC ([1]; NCPF3349, strain NCPF #3349): > 32 µg/mL | MIC ([1]; NCPF8211, strain NCPF #8211): 16 µg/mL (≈ 30.1 µM) | fold range of MIC values for all fungal species tested [2]: > 500 fold | MIC [3]: > 32 µg/mL | MIC ([4]; ATCC10218, strain ATCC #10218, read-out: MIC): < 0.063 µg/mL | MIC ([4]; ATCC22402, strain ATCC #22402, read-out: MIC): < 0.063 µg/mL | MIC ([4]; ATCC28188): 0.125 µg/mL (≈ 0.235 µM) | MIC ([4]; ATCC44697, strain ATCC #44697, read-out: MIC): > 32 µg/mL | MIC ([4]; NCPF0113, strain NCPF #0113, read-out: MIC): > 32 µg/mL | MIC ([4]; NCPF0118, strain NCPF #0118, read-out: MIC): < 0.063 µg/mL | MIC ([4]; NCPF0295, strain NCPF #0295, read-out: MIC): > 32 µg/mL | MIC ([4]; NCPF5025, strain NCPF #5025, read-out: MIC): > 32 µg/mL | MIC ([4]; strain ATCC #MYA-4438, read-out: MIC): > 32 µg/mL | MIC [5]: < 0.063 µg/mL | MIC [6]: > 32 µg/mL | MIC ([7]; ATCC9533, strain ATCC #9533, read-out: MIC): 1 µg/mL (≈ 1.88 µM) | MIC ([7]; ATCC18749): 0.125 µg/mL (≈ 0.235 µM) | MIC ([7]; ATCC28939, strain ATCC #28939, read-out: MIC): 1 µg/mL (≈ 1.88 µM) | MIC ([7]; NCPF0224, strain NCPF #0224, read-out: MIC): 0.25 µg/mL (≈ 0.47 µM) | MIC ([7]; NCPF5024, strain NCPF #5024, read-out: MIC): 0.5 µg/mL (≈ 0.941 µM) | MIC ([8]; ATCC38826, strain ATCC #38826, read-out: MIC): 4 µg/mL (≈ 7.53 µM) | MIC ([8]; ATCC44685): 0.125 µg/mL (≈ 0.235 µM) | MIC ([8]; ATCC52061, strain ATCC #52061, read-out: MIC): 1 µg/mL (≈ 1.88 µM) | MIC ([8]; ATCC52063, strain ATCC #52063, read-out: MIC): > 32 µg/mL | MIC ([8]; ATCC52066, strain ATCC #52066, read-out: MIC): > 32 µg/mL | MIC ([8]; NCPF5011, strain NCPF #5011, read-out: MIC): > 32 µg/mL | MIC ([8]; NCPF5012, strain NCPF #5012, read-out: MIC): > 32 µg/mL | MIC [9]: > 32 µg/mL | MIC [10]: 32 µg/mL (≈ 60.2 µM) | MIC ([11]; Candida albicans, ATCC10231, strain ATCC #10231, read-out: MIC): < 0.063 µg/mL | MIC ([11]; Candida albicans, ATCC58716, strain ATCC #58716, read-out: MIC): 16 µg/mL (≈ 30.1 µM) | MIC ([11]; Candida albicans, ATCC96901, strain ATCC #96901, read-out: MIC): > 32 µg/mL | MIC ([11]; Candida albicans, strain BLSI #112613Ca1, read-out: MIC): > 32 µg/mL | MIC ([11]; strain BLSI #112613Ca2): >32.0 µg/mL
